Our source for the Dmax and DC50 values is patent US12559506B2, “Indazole based compounds and associated methods of use” (Arvinas Operations, Inc., priority 2021, dated 2026).

Read-outs that look alike come from different tables or passages of the source.

The experiment deals with T1, LRRK2 (endogenous, HiBit tagged) (Homo sapiens, UniProt Q5S007).
T1 construct: endogenous in cells; host or cells: HEK293 cells with HiBit knock-in at the endogenous LRRK2 locus, stably expressing firefly luciferase
T1 sequence (Q5S007 whole entry): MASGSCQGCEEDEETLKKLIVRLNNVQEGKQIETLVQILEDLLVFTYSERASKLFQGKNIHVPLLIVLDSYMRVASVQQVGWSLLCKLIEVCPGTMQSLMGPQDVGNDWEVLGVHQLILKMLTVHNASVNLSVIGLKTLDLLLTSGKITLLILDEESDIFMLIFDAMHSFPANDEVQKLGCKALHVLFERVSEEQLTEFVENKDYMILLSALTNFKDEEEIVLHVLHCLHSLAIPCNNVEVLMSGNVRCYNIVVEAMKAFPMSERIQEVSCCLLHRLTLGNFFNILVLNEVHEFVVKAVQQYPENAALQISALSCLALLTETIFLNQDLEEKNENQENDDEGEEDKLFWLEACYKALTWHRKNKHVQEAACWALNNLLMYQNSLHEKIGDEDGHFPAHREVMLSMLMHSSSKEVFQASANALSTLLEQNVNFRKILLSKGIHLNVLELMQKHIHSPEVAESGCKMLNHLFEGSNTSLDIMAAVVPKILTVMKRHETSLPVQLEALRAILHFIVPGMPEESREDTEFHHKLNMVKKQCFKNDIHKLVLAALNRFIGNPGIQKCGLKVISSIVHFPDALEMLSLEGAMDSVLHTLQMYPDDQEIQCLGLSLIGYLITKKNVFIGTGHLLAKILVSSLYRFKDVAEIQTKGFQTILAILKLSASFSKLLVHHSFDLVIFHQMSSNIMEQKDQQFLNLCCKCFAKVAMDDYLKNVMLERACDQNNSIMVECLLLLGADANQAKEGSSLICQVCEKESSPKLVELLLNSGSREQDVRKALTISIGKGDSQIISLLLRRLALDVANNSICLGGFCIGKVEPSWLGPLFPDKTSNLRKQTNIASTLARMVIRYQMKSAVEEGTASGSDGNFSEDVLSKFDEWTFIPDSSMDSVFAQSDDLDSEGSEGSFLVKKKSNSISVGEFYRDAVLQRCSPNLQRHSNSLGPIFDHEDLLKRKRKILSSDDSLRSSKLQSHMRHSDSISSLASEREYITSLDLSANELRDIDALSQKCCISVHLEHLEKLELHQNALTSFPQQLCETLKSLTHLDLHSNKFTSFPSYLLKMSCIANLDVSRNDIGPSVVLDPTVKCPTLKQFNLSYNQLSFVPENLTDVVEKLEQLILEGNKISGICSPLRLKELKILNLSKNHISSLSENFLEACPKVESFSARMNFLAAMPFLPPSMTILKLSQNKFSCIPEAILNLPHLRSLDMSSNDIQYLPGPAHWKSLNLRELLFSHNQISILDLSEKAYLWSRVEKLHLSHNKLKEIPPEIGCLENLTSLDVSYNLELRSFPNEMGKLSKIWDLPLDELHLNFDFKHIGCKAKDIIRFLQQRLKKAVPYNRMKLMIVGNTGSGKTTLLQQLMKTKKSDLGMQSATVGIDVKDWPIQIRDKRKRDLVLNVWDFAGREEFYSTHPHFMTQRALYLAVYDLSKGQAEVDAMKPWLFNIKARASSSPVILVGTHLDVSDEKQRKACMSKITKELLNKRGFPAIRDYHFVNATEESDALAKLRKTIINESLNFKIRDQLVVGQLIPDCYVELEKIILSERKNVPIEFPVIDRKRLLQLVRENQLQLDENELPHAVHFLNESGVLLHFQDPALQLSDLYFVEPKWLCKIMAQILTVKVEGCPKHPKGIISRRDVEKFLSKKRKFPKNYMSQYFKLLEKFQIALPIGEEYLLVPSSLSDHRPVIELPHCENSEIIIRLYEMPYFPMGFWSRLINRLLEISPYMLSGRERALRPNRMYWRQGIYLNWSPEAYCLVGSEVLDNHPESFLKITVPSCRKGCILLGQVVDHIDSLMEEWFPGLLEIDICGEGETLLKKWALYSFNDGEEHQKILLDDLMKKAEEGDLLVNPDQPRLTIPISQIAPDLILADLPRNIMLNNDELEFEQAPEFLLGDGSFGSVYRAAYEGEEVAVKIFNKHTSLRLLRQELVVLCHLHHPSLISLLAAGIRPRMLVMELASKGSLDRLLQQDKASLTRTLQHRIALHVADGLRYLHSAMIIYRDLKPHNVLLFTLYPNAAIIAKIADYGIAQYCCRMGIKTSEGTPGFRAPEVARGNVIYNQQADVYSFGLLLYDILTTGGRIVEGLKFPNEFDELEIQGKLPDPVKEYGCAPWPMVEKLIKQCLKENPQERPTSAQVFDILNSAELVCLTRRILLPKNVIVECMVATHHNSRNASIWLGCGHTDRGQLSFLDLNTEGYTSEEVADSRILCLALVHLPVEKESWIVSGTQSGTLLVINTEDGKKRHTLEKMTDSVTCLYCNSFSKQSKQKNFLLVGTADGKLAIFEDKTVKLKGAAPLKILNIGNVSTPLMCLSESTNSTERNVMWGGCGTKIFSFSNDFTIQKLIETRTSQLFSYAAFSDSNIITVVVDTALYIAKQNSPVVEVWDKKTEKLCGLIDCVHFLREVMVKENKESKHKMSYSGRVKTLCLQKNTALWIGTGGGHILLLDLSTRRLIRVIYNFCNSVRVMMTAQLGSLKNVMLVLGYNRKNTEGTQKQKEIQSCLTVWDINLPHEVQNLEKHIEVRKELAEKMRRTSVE
As to the kind of experiment: Endogenous LRRK2 degradation assay, endogenous gene C-terminally HiBit-tagged in HEK293 cells (Nano-Glo Dual Luciferase). Type of experiment: cell-based. In outline:
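LRRK2-HiBit quantified via Nano-Glo Dual Luciferase in HEK293 knock-in cells co-expressing firefly luciferase, after 24 h exposure to compound (1 μM final top, 1:3, 11 points). Values normalised to DMSO median per plate and curve-fitted; Alamar Blue viability run alongside.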
(In general: With HiBiT, luminescence reflects the tagged protein that the partner subunit can reach.)

Setting [1] is: endogenous HiBit-tagged LRRK2, HEK293 cells, 24 hours, read-out: **Endogenous WT Dmax (%).
[2] abbreviates: endogenous HiBit-tagged LRRK2, HEK293 cells, 24 hours, read-out: *Endogenous WT DC50.
The mark [3] stands for this setting: endogenous HiBit-tagged LRRK2 in HEK293 cells, 24 hours treatment, read-out: Endogenous WT DC50.
The mark [4] stands for this setting: endogenous HiBit-tagged LRRK2 in HEK293 cells, 24 hours treatment, read-out: Endogenous WT Dmax.
Setting [5] is: endogenous HiBit-tagged LRRK2 in HEK293 cells, 24 hours treatment, read-out: **Endogenous WT Dmax (%).
Where [6] appears, read: endogenous HiBit-tagged LRRK2 in HEK293 cells, 24 hours treatment, read-out: *Endogenous WT DC50.
The mark [7] stands for this setting: endogenous HiBit-tagged LRRK2 in HEK293 cells, 24 hours, read-out: **Endogenous WT Dmax (%).
Setting [8] is: endogenous HiBit-tagged LRRK2 in HEK293 cells, 24 hours, read-out: *Endogenous WT DC50.

One may read the Dmax as the greatest extent of degradation seen. As a reminder, the DC50 is the midpoint of the concentration-degradation curve.

As to `CC1(Oc2ccc3[nH]nc(-c4cc(N5CCC(CN6CCC(F)(CN7CCN(c8cc9c(cc8F)C(=O)N(C8CCC(=O)NC8=O)C9)CC7)CC6)CC5)ncn4)c3c2)CC1` (centres unmarked) [Compound 188, 3-[6-fluoro-5-[4-[[4-fluoro-1-[[1-[6-[5-(1-methylcyclopropoxy)-1H-indazol-3-yl]pyrimidin-4-yl]-4-piperidyl]methyl]-4-piperidyl]methyl]piperazin-1-yl]-1-oxo-isoindolin-2-yl]piperidine-2,6-dione], the Dmax under setting [1] was at least 70%. The DC50 under setting [2] was below 0.01 µM.
As for `CC1(Oc2ccc3[nH]nc(-c4cc(N5CCC(O[C@H]6CC[C@H](CN7CCN(c8ccc9c(c8F)CN(C8CCC(=O)NC8=O)C9=O)CC7(C)C)CC6)CC5)ncn4)c3c2)CC1` (some centres unmarked) [Compound 361, 3-[5-(3,3-dimethyl-4-{[(1r,4r)-4-[(1-{6-[5-(1-methylcyclopropoxy)-1H-indazol-3-yl]pyrimidin-4-yl}piperidin-4-yl)oxy]cyclohexyl]methyl}piperazin-1-yl)-4-fluoro-1-oxo-2,3-dihydro-1H-isoindol-2-yl]piperidine-2,6-dione], the DC50 under setting [3] is below 0.01 µM. The greatest degradation seen (Dmax) under setting [4] was 50 to 70%.
For the compound `CC1(Oc2ccc3[nH]nc(-c4cc(N5CCC(OC6CCC7(CC6)CN(c6ccc8c(c6F)CN(C6CCC(=O)NC6=O)C8=O)C7)CC5)ncn4)c3c2)CC1` (centres unmarked) [Compound 374, 3-(4-fluoro-5-{7-[(1-{6-[5-(1-methylcyclopropoxy)-1H-indazol-3-yl]pyrimidin-4-yl}piperidin-4-yl)oxy]-2-azaspiro[3.5]nonan-2-yl}-1-oxo-2,3-dihydro-1H-isoindol-2-yl)piperidine-2,6-dione], the DC50 under setting [3] was below 0.01 µM. Further, the Dmax under setting [4] was 50 to 70%.
`C[C@H]1CN(c2cc(-c3n[nH]c4ccc(OC5(C)CC5)cc34)ncn2)CCN1CC1(F)CCN(CC2CCN(c3ccc4c(c3F)CN(C3CCC(=O)NC3=O)C4=O)CC2)CC1` (stereo partly drawn) [Compound 187, 3-[4-fluoro-5-[4-[[4-fluoro-4-[[(2S)-2-methyl-4-[6-[5-(1-methylcyclopropoxy)-1H-indazol-3-yl]pyrimidin-4-yl]piperazin-1-yl]methyl]-1-piperidyl]methyl]-1-piperidyl]-1-oxo-isoindolin-2-yl]piperidine-2,6-dione]: the Dmax under setting [1] was at least 70%. Under setting [2], the DC50 was below 0.01 µM.
Regarding `C[C@H]1CN(CC2CCN(CC3CCN(c4cc(-c5n[nH]c6ccc(OC7(C)CC7)cc56)ncn4)CC3)CC2)CCN1c1ccc2c(c1F)CN(C1CCC(=O)NC1=O)C2=O` (stereo partly drawn) [Compound 339, 3-{4-fluoro-5-[(2S)-2-methyl-4-({1-[(1-{6-[5-(1-methylcyclopropoxy)-1H-indazol-3-yl]pyrimidin-4-yl}piperidin-4-yl)methyl]piperidin-4-yl}methyl)piperazin-1-yl]-1-oxo-2,3-dihydro-1H-isoindol-2-yl}piperidine-2,6-dione], the Dmax under setting [5] is 50 to 70%. Also, under setting [6], the DC50 was below 0.01 µM.
Take `CC1(Oc2ccc3[nH]nc(-c4cc(C5CCN(CC6CCN(CC7CCN(c8ccc9c(c8)C(=O)N(C8CCC(=O)NC8=O)C9=O)CC7)CC6)CC5)ncn4)c3c2)CC1` (centres unmarked) [Compound 105, 2-(2,6-dioxo-3-piperidyl)-5-[4-[[4-[[4-[6-[5-(1-methylcyclopropoxy)-1H-indazol-3-yl]pyrimidin-4-yl]-1-piperidyl]methyl]-1-piperidyl]methyl]-1-piperidyl]isoindoline-1,3-dione]: the Dmax under setting [7] was in the range of 50 to 70%. The DC50 under setting [8] was at least 0.1 µM.
As for `COc1c(N2CCC(CN3C[C@@H](C)N(CC4CCN(c5cc(-c6n[nH]c7ccc(OC8(C)CC8)cc67)ncn5)CC4)[C@@H](C)C3)CC2)ccc2c1CN(C1CCC(=O)NC1=O)C2=O` (stereo partly drawn) [Compound 287, 3-[5-(4-{[(3R,5S)-3,5-dimethyl-4-[(1-{6-[5-(1-methylcyclopropoxy)-1H-indazol-3-yl]pyrimidin-4-yl}piperidin-4-yl)methyl]piperazin-1-yl]methyl}piperidin-1-yl)-4-methoxy-1-oxo-2,3-dihydro-1H-isoindol-2-yl]piperidine-2,6-dione], the Dmax under setting [5] was 50 to 70%. The DC50 under setting [6] is below 0.01 µM.
Regarding `C[C@H]1CN(CC2CCN(c3cc(-c4n[nH]c5cnc(OC6(C)CC6)cc45)ncn3)CC2)CCN1CC1CCN(c2ccc3c(c2F)CN(C2CCC(=O)NC2=O)C3=O)CC1` (stereo partly drawn) [Compound 276, 3-[4-fluoro-5-(4-{[(2S)-2-methyl-4-[(1-{6-[5-(1-methylcyclopropoxy)-1H-pyrazolo[3,4-c]pyridin-3-yl]pyrimidin-4-yl}piperidin-4-yl)methyl]piperazin-1-yl]methyl}piperidin-1-yl)-1-oxo-2,3-dihydro-1H-isoindol-2-yl]piperidine-2,6-dione], the Dmax under setting [5] fell in the range of 50 to 70%. For the same compound, the DC50 under setting [6] was below 0.01 µM.
Consider `CC1(Oc2ccc3[nH]nc(-c4cc(N5CCC(CN6CCN(CC7CCN(c8cc9c(cc8F)C(=O)N(C8CCC(=O)NC8=O)C9)CC7)CC6)CC5)ncn4)c3c2)CC1` (centres unmarked) [Compound 180, 3-[6-fluoro-5-[4-[[4-[[1-[6-[5-(1-methylcyclopropoxy)-1H-indazol-3-yl]pyrimidin-4-yl]-4-piperidyl]methyl]piperazin-1-yl]methyl]-1-piperidyl]-1-oxo-isoindolin-2-yl]piperidine-2,6-dione], for which the Dmax under setting [1] is at least 70%. Also, under setting [2], the DC50 is below 0.01 µM.
On to `CC1(Oc2ccc3n[nH]c(-c4cc(N5CCN(CCN6CCN(CC7CCN(c8ccc9c(c8)CN(C8CCC(=O)NC8=O)C9=O)CC7)CC6)CC5)ncn4)c3c2)CC1` (centres unmarked) [Compound 66, 3-{5-[4-({4-[2-(4-{6-[5-(1-methylcyclopropoxy)-2H-indazol-3-yl]pyrimidin-4-yl}piperazin-1-yl)ethyl]piperazin-1-yl}methyl)piperidin-1-yl]-1-oxo-2,3-dihydro-1H-isoindol-2-yl}piperidine-2,6-dione], for which, under setting [7], the Dmax was at least 70%. Also, under setting [8], the DC50 is below 0.01 µM.
Consider `C[C@@H]1CN(CC2CCN(c3ccc4c(c3F)CN(C3CCC(=O)NC3=O)C4=O)CC2)C[C@H](C)N1CC1CCN(c2cc(-c3n[nH]c4ccc(OC5(C)CC5)cc34)ncn2)CC1` (stereo partly drawn) [Compound 284, 3-[5-(4-{[(3R,5S)-3,5-dimethyl-4-[(1-{6-[5-(1-methylcyclopropoxy)-1H-indazol-3-yl]pyrimidin-4-yl}piperidin-4-yl)methyl]piperazin-1-yl]methyl}piperidin-1-yl)-4-fluoro-1-oxo-2,3-dihydro-1H-isoindol-2-yl]piperidine-2,6-dione], for which the Dmax under setting [5] fell in the range of 50 to 70%. Besides, the DC50 under setting [6] is below 0.01 µM.
For `C[C@H]1CN(C[C@H]2CC[C@H](OC3CCN(c4cc(-c5n[nH]c6ccc(OC7(C)CC7)cc56)ncn4)CC3)CC2)CCN1c1ccc2c(c1F)CN(C1CCC(=O)NC1=O)C2=O` (stereo partly drawn) [Compound 353, 3-{4-fluoro-5-[(2S)-2-methyl-4-{[(1r,4r)-4-[(1-{6-[5-(1-methylcyclopropoxy)-1H-indazol-3-yl]pyrimidin-4-yl}piperidin-4-yl)oxy]cyclohexyl]methyl}piperazin-1-yl]-1-oxo-2,3-dihydro-1H-isoindol-2-yl}piperidine-2,6-dione], the Dmax under setting [5] was in the range of 50 to 70%. Under setting [6], the DC50 is below 0.01 µM.
Regarding `CC1(Oc2ccc3[nH]nc(-c4cc(N5CC[C@@H](CN6CCN(CC7CCN(c8ccc9c(c8F)CN(C8CCC(=O)NC8=O)C9=O)CC7)CC6)C5)ncn4)c3c2)CC1` (stereo partly drawn) [Compound 327, 3-(4-fluoro-5-{4-[(4-{[(3S)-1-{6-[5-(1-methylcyclopropoxy)-1H-indazol-3-yl]pyrimidin-4-yl}pyrrolidin-3-yl]methyl}piperazin-1-yl)methyl]piperidin-1-yl}-1-oxo-2,3-dihydro-1H-isoindol-2-yl)piperidine-2,6-dione], the Dmax under setting [5] is 50 to 70%. Moreover, under setting [6], the DC50 is below 0.01 µM.
`C[C@H]1CN(c2cc(-c3[nH]nc4cc(F)c(OC5(C)CC5)cc34)ncn2)CCN1CC1(F)CCN(CC2CCN(c3cc4c(cc3F)C(=O)N(C3CCC(=O)NC3=O)C4)CC2)CC1` (stereo partly drawn) [Compound 197, 3-(6-fluoro-5-{4-[(4-fluoro-4-{[(2S)-4-{6-[6-fluoro-5-(1-methylcyclopropoxy)-2H-indazol-3-yl]pyrimidin-4-yl}-2-methylpiperazin-1-yl]methyl}piperidin-1-yl)methyl]piperidin-1-yl}-1-oxo-2,3-dihydro-1H-isoindol-2-yl)piperidine-2,6-dione]: the Dmax under setting [1] was at least 70%. Moreover, the DC50 under setting [2] is below 0.01 µM.
Take `COc1c(N2CCC(CN3CCN(CC4CCN(c5cc(-c6n[nH]c7cnc(OC8(C)CC8)cc67)ncn5)CC4)C[C@H]3C)CC2)ccc2c1CN(C1CCC(=O)NC1=O)C2=O` (stereo partly drawn) [Compound 283, 3-[4-methoxy-5-(4-{[(2R)-2-methyl-4-[(1-{6-[5-(1-methylcyclopropoxy)-1H-pyrazolo[3,4-c]pyridin-3-yl]pyrimidin-4-yl}piperidin-4-yl)methyl]piperazin-1-yl]methyl}piperidin-1-yl)-1-oxo-2,3-dihydro-1H-isoindol-2-yl]piperidine-2,6-dione]: under setting [5], the Dmax was at least 70%. Moreover, the DC50 under setting [6] is below 0.01 µM.
Take `CC1(Oc2ccc3[nH]nc(-c4cc(N5CCC(O[C@H]6CC[C@H](CN7CCN(c8c(F)cc9c(c8F)CN(C8CCC(=O)NC8=O)C9=O)CC7)CC6)CC5)ncn4)c3c2)CC1` (some centres unmarked) [Compound 269, 3-[4,6-difluoro-1-oxo-5-(4-{[(1r,4r)-4-[(1-{6-[5-(1-methylcyclopropoxy)-1H-indazol-3-yl]pyrimidin-4-yl}piperidin-4-yl)oxy]cyclohexyl]methyl}piperazin-1-yl)-2,3-dihydro-1H-isoindol-2-yl]piperidine-2,6-dione]: the Dmax under setting [5] lay in the range of 50 to 70%. Moreover, under setting [6], the DC50 was below 0.01 µM.
